Measurements: PubChem BioAssay AID1117278 (The Scripps Research Institute Molecular Screening Center, 2014)
Active and inactive are the calls of the source. How the calls were made is not given here.

Test system: P. falciparum stage V gametocytes, BacTiter-Glo ATP, 24 h
Assay: viability inhibitors of stage V gametocytes – luminescence, dose response (AID 1117278)

## O=C(C[N+]12CCC(CC1)C(OC(=O)c1ccccc1)C2)c1ccc([N+](=O)[O-])cc1 (stereo unspecified)
  IC50: > 109 µM (inactive)
